In patent US20240317686A1, “RORyT MODULATOR, AND PREPARATION METHOD THEREFOR AND APPLICATION THEREOF” (SHANGHAI PHARMACEUTICALS HOLDING CO., LTD., priority 2020, published 2024):

The molecules below were run against T1, RORγt (Homo sapiens, UniProt P51449) (assay: Fluorescence resonance energy transfer (FRET) assay of inhibitory activity on RORγt). Conditions: RORgt-LBD GST with SRC peptide.
T1 construct: Prepare 4×RORgt-LBD in 1× buffer
T1 sequence (P51449 269-508 limits assumed): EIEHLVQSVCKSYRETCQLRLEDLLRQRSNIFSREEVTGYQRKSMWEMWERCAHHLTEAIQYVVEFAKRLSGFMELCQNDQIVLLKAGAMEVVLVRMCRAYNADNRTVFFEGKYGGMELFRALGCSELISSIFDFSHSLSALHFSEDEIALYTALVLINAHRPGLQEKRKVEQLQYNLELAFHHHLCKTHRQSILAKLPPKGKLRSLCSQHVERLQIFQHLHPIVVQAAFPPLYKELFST
Format: biochemical
Procedure: Fluorescence resonance energy transfer (FRET) experiment was performed to assay the inhibitory activity of the compound of the present invention on RORγt.
1) Preparation of DMSO stock solutions of the compounds: All compounds were dissolved in DMSO to prepare 10 mM stock solutions.
2) Compound storage: After the compound was dissolved in DMSO, the solution can be stored in a desiccator at room temperature for three months. For long-term storage, the solution should be put in a −20° C. refrigerator.
3) Preparation of working solution: • a) Positive control compound AZD0284: Starting from 500 µM, the solution was diluted serially by 3-folds with DMSO to obtain a 10-concentration gradient, each concentration with 3 replicate wells. 2 wells were pipetted. The gradiently diluted compound was diluted in a reaction buffer to obtain a 4× working solution (starting from 40 μM, diluted gradiently by 3-folds) of the positive control compound. • b) Compounds to be tested: Starting from 500 μM, the solution was diluted serially by 3-folds with DMSO to obtain a 10-concentration gradient, each concentration with 3 replicate wells. 2 wells were pipetted. The gradiently diluted compound was diluted in a reaction buffer to obtain a 4× working solution ([…], diluted gradiently by 3-folds) of the compounds to be tested. • c) Prepare a 4× negative control (8% DMSO). • d) Centrifuge the plate at 1000 rpm for 1 min.
1) Prepare 4× serially diluted compounds in 1× buffer.
2) Add 5 μl of the 4× serially diluted compound (prepared in step 1) to a 384 assay plate (784075, Greiner).
3) Prepare 4×RORgt-LBD in 1× buffer.
4) Add 5 μl of the 4×RORgt-LBD (prepared in step 3) to the 384 assay plate (prepared in step 2).
5) Incubate the assay plate for 15 min at room temperature, protected from light.
6) Prepare a 2× mixture of SRC, anti-GST Eu and streptavidin-d2 in 1× […].
7) Add 10 μl of the 2× mixture (prepared in step 6) to the 384 assay plate (prepared in step 4).
8) Centrifuge the 384 assay plates at 1000 g for 1 min.
9) Incubate for 3 h at room temperature, protected from light.
10) Read the plate at wavelengths of 665 nm and 615 nm on an Envision 2104 plate reader.
Relative ratio (RR): Calculate the relative ratio (response value at 665 nm/response value at 615 nm-response value in blank background) of each well.
Inhibition rate %=[1−(fluorescence detection value of the compound−fluorescence detection average of the positive compound)/(fluorescence detection average of the negative control−fluorescence detection average of the positive compound)]×100
Calculate the IC50 and dose-response curve of the compound: The IC50 and dose-response curve of the compound were obtained via Graphpad 8.0 by calculating the inhibition rate of the compound and the log value of the compound concentration.
With `CCS(=O)(=O)c1ccc(CC(=O)Nc2ccc(C(=O)C(C)(C)c3cnn(C)c3)nc2)cc1` [Compound I-23, 2-(4-(ethylsulfonyl)phenyl)-N-(6-(2-methyl-2-(1-methyl-1H-pyrazol-4-yl)propionyl)pyridin-3-yl)acetamide] the IC50 was 10 to 50 nM. Molecule `CCS(=O)(=O)c1ccc(CC(=O)Nc2ccc(C(=O)C(C)(C)c3ccc(Cl)cc3)nc2)nc1` [Compound I-24, N-(6-(2-(4-chlorophenyl)-2-methylpropionyl)pyridin-3-yl)-2-(5-(ethylsulfonyl)pyridin-2-yl)acetamide] has an IC50 of 10 to 50 nM. Work on `CCS(=O)(=O)c1ccc(CC(=O)Nc2ccc(C(=O)C(C)(C)c3ccc(C(F)(F)F)cn3)nc2)cc1` [Compound I-25, 2-(4-(ethylsulfonyl)phenyl)-N-(6-(2-methyl-2-(5-(trifluoromethyl)pyridin-2-yl)propionyl)pyridin-3-yl)acetamide] yielded an IC50 of 1 to 10 nM. `CCS(=O)(=O)c1ccc(CC(=O)Nc2ccc(C(=O)C(C)(C)c3ccc(F)c(Cl)c3)nc2)nc1` [Compound I-26, N-(6-(2-(3-chloro-4-fluorophenyl)-2-methylpropionyl)pyridin-3-yl)-2-(5-(ethylsulfonyl)pyridin-2-yl)acetamide] gave an IC50 of 1 to 10 nM. `CCS(=O)(=O)c1ccc(CC(=O)Nc2ccc(C(=O)C(C)(C)c3cc(Cl)cc(C#N)c3)nc2)cc1` [Compound I-27, N-(6-(2-(3-chloro-5-cyanophenyl)-2-methylpropionyl)pyridin-3-yl)-2-(4-(ethylsulfonyl)phenyl) acetamide] showed an IC50 of 1 to 10 nM. `CCS(=O)(=O)c1ccc(CC(=O)Nc2ccc(C(=O)C(C)(C)c3ccc(F)cn3)nc2)cc1` [Compound I-28] was tested, and the IC50 was 10 to 50 nM. For `CCS(=O)(=O)c1ccc(CC(=O)Nc2ccc(C(=O)C(C)(C)c3ccnc(C)c3)nc2)cc1` [Compound I-29], the IC50 was 1 to 10 nM. With `CCS(=O)(=O)c1ccc(CC(=O)Nc2ccc(C(=O)C(C)(C)c3ccc(C)cn3)nc2)cc1` [Compound I-30] the IC50 was 1 to 10 nM. Molecule `CCS(=O)(=O)c1ccc(CC(=O)Nc2ccc(C(=O)C(C)(C)c3ccc(Cl)cn3)nc2)cc1` [Compound I-31] has an IC50 of 1 to 10 nM. `CCS(=O)(=O)c1ccc(CC(=O)Nc2ccc(C(=O)C(C)(C)c3cncc(Cl)c3)nc2)cc1` [Compound I-32, N-(6-(2-(5-chloropyridin-3-yl)-2-methylpropionyl)pyridin-3-yl)-2-(4-(ethylsulfonyl)phenyl)acetamide] was tested, and the IC50 was 10 to 50 nM. For `CCS(=O)(=O)c1ccc(CC(=O)Nc2ccc(C(=O)C(C)(C)c3cnn(CC(F)(F)F)c3)nc2)cc1` [Compound I-33, 2-(4-(ethylsulfonyl)phenyl)-N-(6-(2-methyl-2-(1-(2,2,2-trifluoroethyl)-1H-pyrazol-4-yl)propionyl)pyridin-3-yl)acetamide], the IC50 was 10 to 50 nM. Molecule `CCS(=O)(=O)c1ccc(CC(=O)Nc2ccc(C(=O)C(C)(C)c3cnn(CC(F)F)c3)nc2)cc1` [Compound I-34] has an IC50 of 100 to 1000 nM. Work on `CCS(=O)(=O)c1ccc(CC(=O)Nc2ccc(C(=O)C3(c4ccc(Cl)cc4)CC(F)(F)C3)nc2)cc1` [Compound I-35] yielded an IC50 of 1 to 10 nM. Work on `CCS(=O)(=O)c1ccc(CC(=O)Nc2ccc(C(=O)C(C)(C)c3nccs3)nc2)cc1` [Compound I-36] yielded an IC50 of 10 to 50 nM. For `CCS(=O)(=O)c1ccc(CC(=O)Nc2ccc(C(=O)C(C)(C)n3cc(C)cn3)nc2)cc1` [Compound I-37], the IC50 was 100 to 1000 nM. For `CCS(=O)(=O)c1ccc(CC(=O)Nc2ccc(C(=O)C(C)(C)n3ccc(C)n3)nc2)cc1` [Compound I-38], the IC50 was > 1000 nM. `CCS(=O)(=O)c1ccc(CC(=O)Nc2ccc(C(=O)C(F)(F)c3ccc(Cl)cc3)nc2)cc1` [Compound I-39, N-(6-(2-(4-chlorophenyl)-2,2-difluoroacetyl)pyridin-3-yl)-2-(4-(ethylsulfonyl)phenyl)acetamide] was tested, and the IC50 was > 1000 nM. Work on `CCS(=O)(=O)c1ccc(CC(=O)Nc2ccc(C(=O)C(C)(C)c3cc(C#N)ccn3)nc2)cc1` [Compound I-40, N-(6-(2-(4-cyanopyridin-2-yl)-2-methylpropionyl)pyridin-3-yl)-2-(4-(ethylsulfonyl)phenyl)acetamide] yielded an IC50 of 1 to 10 nM. With `CCS(=O)(=O)c1ccc(CC(=O)Nc2ccc(C(=O)C(C)(C)c3ncc(F)cc3F)nc2)cc1` [Compound I-41, N-[6-[2-(3,5-difluoro-2-pyridyl)-2-methyl-propionyl]-3-pyridyl]-2-(4-ethylsulfonylphenyl)acetamide] the IC50 was 1 to 10 nM. `CCn1cc(C(C)(C)C(=O)c2ccc(NC(=O)Cc3ccc(S(=O)(=O)CC)cc3)cn2)cn1` [Compound I-42, N-(6-(2-(1-ethyl-1H-pyrazol-4-yl)-2-methylpropionyl)pyridin-3-yl)-2-(4-(ethylsulfonyl)phenyl) acetamide] gave an IC50 of 10 to 50 nM. `[2H]C([2H])([2H])n1cc(C(C)(C)C(=O)c2ccc(NC(=O)Cc3ccc(S(=O)(=O)CC)cc3)cn2)cn1` [Compound I-43, 2-(4-(ethylsulfonyl)phenyl)-N-(6-(2-methyl-2-(1-(methyl-D3)-1H-pyrazol-4-yl)propionyl)pyridin-3-yl)acetamide] gave an IC50 of 10 to 50 nM. `CCS(=O)(=O)c1ccc(CC(=O)Nc2ccc(C(=O)C(C)(C)c3ncccc3F)nc2)cc1` [Compound I-44, 2-(4-(ethylsulfonyl)phenyl)-N-(6-(2-(3-fluoropyridin-2-yl)-2-methylpropionyl)pyridin-3-yl)acetamide] showed an IC50 of 1 to 10 nM. `CCS(=O)(=O)c1ccc(CC(=O)Nc2ccc(C(=O)C3(c4ccccn4)CC3)nc2)cc1` [Compound I-45, 2-(4-(ethylsulfonyl)phenyl)-N-(6-(1-(pyridin-2-yl)cyclopropane-1-carbonyl)pyridin-3-yl)acetamide] showed an IC50 of 100 to 1000 nM. `CCS(=O)(=O)c1ccc(CC(=O)Nc2ccc(C(=O)C3(c4ccccn4)CCC3)nc2)cc1` [Compound I-46, 2-(4-(ethylsulfonyl)phenyl)-N-(6-(1-(pyridin-2-yl)cyclobutane-1-carbonyl)pyridin-3-yl)acetamide] showed an IC50 of 10 to 50 nM. Molecule `CNS(=O)(=O)c1ccc(CC(=O)Nc2ccc(C(=O)C(C)(C)c3ccc(F)c(Cl)c3)nc2)cc1` [Compound I-47] has an IC50 of 1 to 10 nM. `CCS(=O)(=O)c1ccc(CC(=O)Nc2ccc(C(=O)C(C)(C)c3ccc(C)nc3)nc2)cc1` [Compound I-48, 2-(4-(ethylsulfonyl)phenyl)-N-(6-(2-methyl-2-(6-methylpyridin-3-yl)propionyl)pyridin-3-yl)acetamide] showed an IC50 of 50 to 100 nM. `CCS(=O)(=O)c1ccc(CC(=O)Nc2ccc(C(=O)C(C)(C)c3ccc(C(F)(F)F)nc3)nc2)cc1` [Compound I-50] showed an IC50 of 50 to 100 nM. Molecule `CCS(=O)(=O)c1ccc(CC(=O)Nc2ccc(C(=O)C(C)(C)c3ccnc(C(F)(F)F)c3)nc2)cc1` [Compound I-52] has an IC50 of 1 to 10 nM. `CCS(=O)(=O)c1ccc(CC(=O)Nc2ccc(C(=O)C3(c4ccccn4)CC(F)(F)C3)nc2)cc1` [Compound I-54, N-(6-(3,3-difluoro-1-(pyridin-2-yl)cyclobutane-1-carbonyl)pyridin-3-yl)-2-(4-(ethylsulfonyl)phenyl)acetamide] showed an IC50 of 1 to 10 nM. Work on `CCS(=O)(=O)c1ccc(CC(=O)Nc2ccc(C(=O)C(C)(C)c3cnc(C)nc3)nc2)cc1` [Compound I-55] yielded an IC50 of 100 to 1000 nM. `CCS(=O)(=O)c1ccc(CC(=O)Nc2ccc(C(=O)C(C)(C)c3nc(C)c(C)o3)nc2)cc1` [Compound I-56, N-(6-(2-(4,5-dimethyloxazol-2-yl)-2-methylpropionyl)pyridin-3-yl)-2-(4-(ethylsulfonyl)phenyl) acetamide] showed an IC50 of 10 to 50 nM. `CCS(=O)(=O)c1ccc(CC(=O)Nc2ccc(C(=O)C(C)(C)c3cccc(C)n3)nc2)cc1` [Compound I-57] was tested, and the IC50 was 1 to 10 nM. Molecule `CCS(=O)(=O)c1ccc(CC(=O)Nc2ccc(C(=O)C(C)(C)c3cc(Br)ccn3)nc2)cc1` [Compound I-58, N-(6-(2-(4-bromopyridin-2-yl)-2-methylpropionyl)pyridin-3-yl)-2-(4-(ethylsulfonyl)phenyl)acetamide] has an IC50 of 1 to 10 nM. Molecule `CCS(=O)(=O)c1ccc(CC(=O)Nc2ccc(C(=O)C(C)(C)c3ncc(C)cn3)nc2)cc1` [Compound I-59, 2-(4-(ethylsulfonyl)phenyl)-N-(6-(2-methyl-2-(5-methylpyrimidin-2-yl)propionyl)pyridin-3-yl) acetamide] has an IC50 of 10 to 50 nM.
